# Data taken from US5571793A, “Endoparasiticidal compositions based on open-chain tetradepsipeptides” (Bayer Aktiengesellschaft, priority 1993, dated 1996).
# Test system: Haemonchus contortus
# Assay: In vivo nematode test Haemonchus contortus/sheep
# Conditions: sheep infected experimentally with Haemonchus contortus; pure active compound orally and/or intravenously; dose at which nematode egg excretion with the faeces stops completely
# Experimental: Sheep which had been infected experimentally with Haemonchus contortus were treated after the prepatency period of the parasites had elapsed. The active compounds were administered orally and/or intravenously in the form of the pure active compound.
# The degree of effectiveness is determined by quantitatively determining the nematode eggs excreted with the faeces before and after the treatment.
# If egg excretion stops completely after the treatment, this means that the nematodes have been aborted or damaged in such a manner that they no longer produce eggs (dosis effectiva).
# Active compounds which have been tested and effective dosage rates (dosis effectiva) can be seen from the Table which follows: […]
row,Structure (SMILES),Dosis effectiva
1,"CCN[C@@H](CC(C)C)C(=O)O[C@H](C)C(=O)N(CC)[C@@H](CC(C)C)C(=O)O[C@H](Cc1ccccc1)C(=O)OC(C)(C)C [Example 1, tert.-Butyl-N-ethyl-L-leucyl-D-lactyl-N-ethyl-L-leucyl-D-3-phenyllactate]",10 mg/kg
2,"CCCN(Cc1ccccc1)[C@@H](CC(C)C)C(=O)O[C@H](C)C(=O)N(CCC)[C@@H](CC(C)C)C(=O)O[C@H](Cc1ccccc1)C(=O)O [Example 2, N-Benzyl-N-propyl-L-leucyl-D-lactyl-N-propyl-L-leucyl-D-phenyllactic acid]",10 mg/kg
3,"CN[C@@H](Cc1ccccc1)C(=O)O[C@H](C)C(=O)N(C)[C@H](Cc1ccccc1)C(=O)O[C@H](C)C(=O)OC(C)(C)C [Example 3, tert.-Butyl-N-methyl-L-phenylalanyl-D-lactyl-N-methyl-D-phenylalanyl-D-lactate]",10 mg/kg
